Columns and labels:
[1] = target: T1, P. thermopropionicum HmfF (Pelotomaculum thermopropionicum, UniProt A5D4Z9); conditions: substrate specificity
Method: Subsequently, HmfF was purified and assayed under anaerobic conditions. […] All subsequent assays were performed at 50° C.

[2] = test system: P. thermopropionicum HmfF wild-type (WT); experiment: Reconstituted holo-PtHmfF decarboxylation assay (FIG. 7), wild-type; assay type: biochemical, Pelotomaculum thermopropionicum; conditions: 1 mM substrate; for observed kcat (decarboxylation activity): pH6, 50° C., anaerobic
Method: Reconstitution and Assays were performed anaerobically within a 100% N2-atmosphere glove box (Belle Technology, UK).
Holo-PtHmfF (e.g., an enzyme with its cofactors) was obtained by reconstituting single expressed HmfF with reduced prFMN under anaerobic conditions as described previously for the UbiD from E. coli in Marshall, S. A., Fisher, K., Ni Cheallaigh, A., White, M. D., Payne, K. A., Parker, D. A., Rigby, S. E., and Leys, D. (2017) Oxidative Maturation and Structural Characterization of Prenylated FMN Binding by UbiD, a Decarboxylase Involved in Bacterial Ubiquinone Biosynthesis. The Journal of biological chemistry 292, 4623-4637. In general, a reaction consisting of 1 mM FMN, 2 mM DMAP (Sigma), 50 μM Fre reductase and 50 μM UbiX in buffer A was started by the addition of 5 mM NADH. Following incubation, the reaction mixture was filtered through 10 k MWCO centrifugal concentrator to remove UbiX and Fre proteins. The filtrate containing the prFMN product was used to reconstitute anaerobic apo-HmfF (e.g., an enzyme without its cofactors) in a 2:1 molar ratio, with excess cofactor being removed using a PD25 desalting column (GE Healthcare). Use of holo-PtHmfF ensures the activity observed in the enzymatic activity assay below is minimally impacted by the presence or absence of cofactors.
Assays were performed by UV-vis spectroscopy using a Cary 50 Bio spectrophotometer (Varian).

[3] = test system: P. thermopropionicum HmfF R305Q variant; experiment: Reconstituted holo-PtHmfF decarboxylation assay (FIG. 7), R305Q variant; assay type: biochemical, Pelotomaculum thermopropionicum; conditions: 1 mM substrate
Method: (§1) Mutagenesis primers were designed using the QuikChange® Primer Design Program (http://www.genomics.agilent.com/primerDesignProgram.jsp). PCR was performed using Phusion polymerase (NEB). Template was removed by DpnI (NEB) digest and the PCR product transformed into E. coli NEB5-alpha. Once the presence of the desired mutation was confirmed by DNA sequencing, the plasmid was transformed into E. coli BL21(DE3). The three variants transformed into E. coli BL21(DE3) includes one with a mutation of H297N, a second with H297F, and a third of R305Q.
(§2) Protein was expressed in BL21(DE3) grown at 37° C./180 rpm in LB broth supplemented with 50 μg/ml ampicillin At mid-log phase cells were induced with 0.25 mM IPTG and grown overnight at 15° C./180 rpm and then harvested by centrifugation (4° C., 7000 g for 10 minutes). Cell pellets were resuspended in buffer A (200 mM KCl, 1 mM MnCl2, 50 mM Tris pH 7.5) supplemented with DNase, RNase, lysozyme (Sigma) and Complete EDTA-free protease inhibitor cocktail (Roche). Cells were lysed using a French press at 1500 psi and the lysate incubated at 50° C. for 30 minutes to precipitate host proteins. The lysate was clarified by centrifugation at 125,000 g for 90 minutes. […]

[4] = test system: P. thermopropionicum HmfF H297F variant; experiment: Reconstituted holo-PtHmfF decarboxylation assay (FIG. 7), H297F variant; assay type: biochemical, Pelotomaculum thermopropionicum; conditions: 1 mM substrate
Method: as §1, §2

G. kaustophilus HmfF = experiment: HmfF carboxylation reactions assayed by HPLC; assay type: biochemical, Geobacillus kaustophilus; conditions: 50 mM furoic acid, 3 M ammonium bicarbonate, 50° C. overnight
Method: (§3) […] The sample was centrifuged at 16100 g to remove precipitate and […] added to 980 μl 50% v/v H2O/acetonitrile. Sample analysis was performed using an Agilent 1260 Infinity Series HPLC equipped with a UV detector. The stationary phase was a Kinetex […] C18 100A column, 250×4.6 mm The mobile phase was acetonitrile/water (50/50) with 0.1% TFA at a flow rate of 1 ml/min, and unless otherwise stated detection was performed at a wavelength of 265 nm.

[5] = target: T1, P. thermopropionicum HmfF; experiment: HmfF carboxylation reactions assayed by HPLC; assay type: biochemical; conditions: 50 mM furoic acid, 3 M ammonium bicarbonate, 50° C. overnight
Method: as §3

[6] = Effect of pH, temperature and oxygen on HmfF decarboxylation activity (UV-vis)

O=C(O)c1ccoc1C(=O)O [2,3-furandicarboxylic acid]
decarboxylation by purified P. thermopropionicum HmfF [1]: no decarboxylation detected

O=C(O)c1ccc(C(=O)O)s1 [2,5-thiophenedicarboxylic acid]
decarboxylation by purified P. thermopropionicum HmfF [1]: no decarboxylation detected

O=C(O)c1cccc(C(=O)O)n1 [2,6-pyridinedicarboxylic acid]
decarboxylation by purified P. thermopropionicum HmfF [1]: no decarboxylation detected

O=C(O)c1ccc(CO)o1 [5-hydroxymethyl-2-furoic acid]
decarboxylation by purified P. thermopropionicum HmfF [1]: no decarboxylation detected

O=C(O)c1ccc([N+](=O)[O-])o1 [5-nitro-2-furoic acid]
decarboxylation by purified P. thermopropionicum HmfF [1]: no decarboxylation detected

O=C(O)c1ccc(C(=O)O)o1 [FDCA, 2,5-furandicarboxylic acid]
observed kcat (decarboxylation activity) [2]: greater than 4 kcat/s | decarboxylation activity [3]: did not exhibit any measurable decarboxylation activity | decarboxylation activity [4]: did not exhibit any measurable decarboxylation activity | decarboxylation by purified P. thermopropionicum HmfF [1]: capable of decarboxylating

O=C(O)c1ccc(C(=O)O)[nH]1 [PDCA, 2,5-pyrrol-dicarboxylic acid]
decarboxylation activity relative to the activity for FDCA [2]: about 2.5% | observed kcat (decarboxylation activity) [2]: less than 0.1 kcat/s | decarboxylation activity [3]: did not exhibit any measurable decarboxylation activity | decarboxylation activity [4]: did not exhibit any measurable decarboxylation activity

O=C(O)c1ccco1 [furoic acid]
carboxylation of furoic acid to FDCA (HPLC peak) (G. kaustophilus HmfF): co-migrates with an FDCA standard | carboxylation of furoic acid to FDCA (HPLC peak) [5]: co-migrates with an FDCA standard | decarboxylation by purified P. thermopropionicum HmfF [1]: could not further decarboxylate

O=C(O)c1cccc(C(=O)O)c1 [isophthalic acid]
decarboxylation by purified P. thermopropionicum HmfF [1]: no decarboxylation detected

O=C(O)/C=C/C=C/C(=O)O [muconic acid]
decarboxylation by purified P. thermopropionicum HmfF [1]: no decarboxylation detected

O=C(O)c1ccc(C(=O)O)cc1 [terephthalic acid]
decarboxylation by purified P. thermopropionicum HmfF [1]: no decarboxylation detected

B1: P. thermopropionicum HmfF: HmfF enzyme (2,5-furandicarboxylic acid decarboxylase) of SEQ ID NO:1 from the thermophilic bacterium Pelotomaculum thermopropionicum (protein, listed as Pelotomaculum thermopropionicum)
chain: MSHSLREWLAFLEGKGKLKRVRKEVDPVFEIAALGKQADGICSLLFERVKGYAVPVVTGLAGDRELFAAAMSVPVEGMLEKLAAAVENPVPCRLVSPDGAPVKECIIRENIDLLKMLPIPTHHAGDAGPYITAAILIARDPDSGVRNVSIHRLQVTGPDRLGILILPRHLWHFFGKAERAGRPLEIALAIGVHPAVLLASQATTRLGVDELEIASALLPQPLELVKCETVDVEVPAGAEIVIEGKILPGVREVEGPFGEYPRYYGPAAPRPVVEVTAVTHRRQPVYHTIIPASREHLLLGGIAREAVLLQTVRQAVPTVKNVHLTPGGSCRYHAVISIEKKHEGEAKNAIFAAFTSSSEVKHVVVVDHEINIFDPEEVEWAVATRCQAGRDVFIVKDAMGNRLDPSSRDGVSDKMGIDATIPLNLPGERFERISIPGLDKIKLADYLE
activation energy ([6]; Arrhenius plot of the 25° C.-50° C. data points): 19.3 kcal/mol | temperature maximum of enzyme activity ([6]; FDCA decarboxylation, anaerobic): ~60 °C

From US20210180095A1 (SHELL OIL COMPANY, priority 2017, published 2021)
